Source: ChEMBL document CHEMBL4371048, “Ganocapenoids A-D: Four new aromatic meroterpenoids from Ganoderma capense” (Bioorg Med Chem Lett, 2019)
Active and inactive are the calls of the source. The calls are words filed in the database; no cut-off is given here.

How the values were obtained:
PC-12 = assay: Neurite-outgrowth promoting activity in NGF-differentiated rat PC12 cells assessed as cell differentiation at 10 uM after 72 hrs by phase contrast microscopic method (reference value: 4.72 +/- 1.18%); assay type: functional, cell-based
Acetylcholinesterase = Acetylcholinesterase (Homo sapiens, UniProt P22303); assay: Inhibition of AchE (unknown origin) using acetylthiocholine iodide as substrate preincubated for 20 mins followed by substrate addition and measured every 20 secs for 20 times by Ellman's assay
Acetylcholinesterase, sequence (P22303 whole entry): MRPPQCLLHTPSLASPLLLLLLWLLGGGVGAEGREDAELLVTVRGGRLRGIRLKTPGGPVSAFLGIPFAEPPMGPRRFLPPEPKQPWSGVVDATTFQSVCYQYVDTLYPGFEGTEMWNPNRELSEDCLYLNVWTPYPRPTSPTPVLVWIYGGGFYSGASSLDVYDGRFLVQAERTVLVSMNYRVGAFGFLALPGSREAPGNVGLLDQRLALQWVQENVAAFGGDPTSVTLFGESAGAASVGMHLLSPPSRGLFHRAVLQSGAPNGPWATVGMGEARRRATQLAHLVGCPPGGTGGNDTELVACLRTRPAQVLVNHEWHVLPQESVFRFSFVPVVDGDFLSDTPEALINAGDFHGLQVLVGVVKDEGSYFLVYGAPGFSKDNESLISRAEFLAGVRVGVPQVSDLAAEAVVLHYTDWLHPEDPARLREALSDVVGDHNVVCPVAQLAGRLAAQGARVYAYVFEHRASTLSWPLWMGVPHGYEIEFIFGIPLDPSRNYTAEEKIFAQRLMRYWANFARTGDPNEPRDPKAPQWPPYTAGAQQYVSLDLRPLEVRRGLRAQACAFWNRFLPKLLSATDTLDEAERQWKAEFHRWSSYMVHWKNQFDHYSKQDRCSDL

HepG2 [1] = assay: Increase in LXRalpha mRNA level in human HepG2 cells at 20 to 40 uM after 24 hrs by qPCR analysis; assay type: functional, cell-based
HepG2 [2] = assay: Increase in LDLR expression in human HepG2 cells at 20 to 40 uM after 24 hrs by Western blot analysis; assay type: functional, cell-based
HepG2 [3] = assay: Increase in PPARgamma expression in human HepG2 cells at 20 to 40 uM after 24 hrs by Western blot analysis; assay type: functional, cell-based
HepG2 [4] = assay: Decrease in SREBP2 mRNA level in human HepG2 cells at 20 to 40 uM after 24 hrs by qPCR analysis; assay type: functional, cell-based
HepG2 [5] = assay: Increase in ABCG1 mRNA level in human HepG2 cells at 20 to 40 uM after 24 hrs by qPCR analysis; assay type: functional, cell-based
HepG2 [6] = assay: Increase in PPARgamma mRNA level in human HepG2 cells at 20 to 40 uM after 24 hrs by qPCR analysis; assay type: functional, cell-based
HepG2 [7] = assay: Decrease in HMGCR mRNA level in human HepG2 cells at 20 to 40 uM after 24 hrs by qPCR analysis; assay type: functional, cell-based
HepG2 [8] = assay: Decrease in HMGCR expression in human HepG2 cells at 20 to 40 uM after 24 hrs by Western blot analysis; assay type: functional, cell-based
HepG2 [9] = assay: Cytotoxicity against human HepG2 cells assessed as effect on cell viability at 10 to 160 uM after 48 hrs by MTT assay; assay type: cell-based; settings: hepg2, 48 h
HepG2 [10] = assay: Reduction in lipid accumulation in human HepG2 cells after 24 hrs by Oil-red O staining based microscopic analysis; assay type: functional, cell-based
HepG2 [11] = assay: Increase in ABCG1 expression in human HepG2 cells at 20 to 40 uM after 24 hrs by Western blot analysis; assay type: functional, cell-based

Row | Structure (SMILES) | Activity (PC-12) [%] | IC50 (Acetylcholinesterase) [µM] | other results
1 | CC1(C)Oc2ccc(O)cc2C2=C1CCC(C(=O)O)=C2 | 4.89 | – | –
2 | O=C(O)CC1(CC(=O)c2cc(O)ccc2O)C=C(CO)CCC1 (stereo not drawn) | 5.97 | 26 | –
3 | C/C1=C\CCC2=CC(c3cc(O)ccc3O)(OC/C(CO)=C/CC1)OC2=O (stereo not drawn) | – | – | Activity (HepG2 [1]): Active; Activity (HepG2 [2]): Active; Activity (HepG2 [3]): Active; Activity (HepG2 [4]): Active; Activity (HepG2 [5]): Active; Activity (HepG2 [6]): Active; Activity (HepG2 [7]): Active; Activity (HepG2 [8]): Active; Activity (HepG2 [9]): Non-Toxic; Activity (HepG2 [10]): Dose-dependent effect; Activity (HepG2 [11]): Active
4 | COC(=O)/C(=C\C(=O)c1cc(O)ccc1O)CC/C=C(\C)CCC=C(C)C | 10.95 | 8.2 | –
5 | C/C(=C/CCC1=C[C@@H](c2cc(O)ccc2O)OC1=O)CO | 12.31 | – | –
6 | C/C(=C/CCC1=C[C@H](c2cc(O)ccc2O)OC1=O)CO | 11.67 | – | –
7 | C/C(=C\CCC1=C[C@@H](c2cc(O)ccc2O)OC1=O)CCC=C(CO)CO | 6.19 | – | –
8 | COC(=O)/C(=C\C(=O)c1cc(O)ccc1O)CC/C=C(\C)CCC=C(CO)CO | 5.32 | – | –
9 | C/C(=C\CCC1=C[C@H](c2cc(O)ccc2O)OC1=O)CCC=C(CO)CO | 6.72 | – | –
10 | C/C(=C/CC[C@H](CO)c1cc2cc(O)c(O)cc2o1)CO | 7.11 | 28.6 | –
